According to ChEMBL document CHEMBL1201862, “PubChem BioAssay data set” (2004):
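In this assay, cells in 96-well plates receive the compound at five concentrations for 48 hours. Endpoints are linearly interpolated between the surrounding concentrations. GI50 = concentration required for 50% inhibition of growth.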 Activity calls are given as the source filed them. Cut-off read from the data, not from the text of the source: active = GI50 up to about 1.1 µM and inactive = higher.

What was measured:
Assay in all cases: NCI tumour cell line growth inhibition, 48 h
[1] = system: 786-0
[2] = system: COLO 205
[3] = system: HOP-92
[4] = system: M14
[5] = system: MOLT-4
[6] = system: Malme-3M
[7] = system: NCI-H226
[8] = system: NCI-H522
[9] = system: OVCAR-3
[10] = system: OVCAR-5
[11] = system: SF-539
[12] = system: UO-31
[13] = system: HOP-62

| SMILES | GI50 [1] | GI50 [2] | GI50 [3] | GI50 [4] | GI50 [5] | GI50 [6] | GI50 [7] | GI50 [8] | GI50 [9] | GI50 [10] | GI50 [11] | GI50 [12] | GI50 [13] |
| --- | --- | --- | --- | --- | --- | --- | --- | --- | --- | --- | --- | --- | --- |
| CN(Cc1ccccc1)C(=O)c1ccccc1C(=O)O | > 100 µM (inactive) | > 100 µM (inactive) | > 100 µM (inactive) | > 100 µM (inactive) | > 100 µM (inactive) | > 100 µM (inactive) | > 100 µM (inactive) | > 100 µM (inactive) | > 100 µM (inactive) | > 100 µM (inactive) | > 100 µM (inactive) | > 100 µM (inactive) | – |
| O=C1/C=C(/c2ccc(O)cc2)[C@@H](O)Cc2ccc(O)cc2O1 | > 100 µM (inactive) | > 100 µM (inactive) | – | > 100 µM (inactive) | – | > 100 µM (inactive) | 0.859 µM (active) | 54.8 µM (inactive) | > 100 µM (inactive) | > 100 µM (inactive) | 52.5 µM (inactive) | 85.3 µM (inactive) | 61.4 µM (inactive) |
| N[C@H]1C2C3CC4C5CC(C42)C1(c1ccccc1)C53 (stereo partly specified) | > 100 µM (inactive) | 81.3 µM (inactive) | 65.8 µM (inactive) | > 100 µM (inactive) | > 100 µM (inactive) | > 100 µM (inactive) | > 100 µM (inactive) | > 100 µM (inactive) | > 100 µM (inactive) | 75 µM (inactive) | > 100 µM (inactive) | > 100 µM (inactive) | > 100 µM (inactive) |
| C=Nc1ccc([N+](=O)[O-])cc1 | > 100 µM (inactive) | > 100 µM (inactive) | > 100 µM (inactive) | > 100 µM (inactive) | > 100 µM (inactive) | > 100 µM (inactive) | > 100 µM (inactive) | > 100 µM (inactive) | > 100 µM (inactive) | > 100 µM (inactive) | > 100 µM (inactive) | > 84.9 µM (inactive) | – |
| Cc1cc(N(CCC#N)CCC#N)ccc1/C=C(\NC(=O)/C=C/c1ccccc1)NC(=O)Nc1ccc(Cl)cc1 | 51.6 µM (inactive) | > 100 µM (inactive) | 39.4 µM (inactive) | > 100 µM (inactive) | > 100 µM (inactive) | 73.6 µM (inactive) | 30.9 µM (inactive) | – | 80.5 µM (inactive) | > 100 µM (inactive) | 26 µM (inactive) | 74.1 µM (inactive) | – |
| N/N=C1\C(=O)N(C2CCCCCC2)C(=O)C1C(=O)NC1CCCCCC1 (stereo unspecified) | 29.6 µM (inactive) | 35.1 µM (inactive) | 21.3 µM (inactive) | 35 µM (inactive) | 22 µM (inactive) | 24.7 µM (inactive) | – | 23.2 µM (inactive) | 32.4 µM (inactive) | 39.3 µM (inactive) | 24.7 µM (inactive) | 20.3 µM (inactive) | > 10 µM (inactive) |
| CCC1=CCC(P(=O)(c2ccccc2)c2ccccc2)CC1C (stereo unspecified) | 39 µM (inactive) | 35 µM (inactive) | 25.5 µM (inactive) | 32.6 µM (inactive) | 20.5 µM (inactive) | 41.7 µM (inactive) | 39.2 µM (inactive) | 20.7 µM (inactive) | 35.4 µM (inactive) | 65.2 µM (inactive) | 42.9 µM (inactive) | 21.7 µM (inactive) | – |
| CCCN(CCC)c1c([N+](=O)[O-])cc(C(=O)N(C)C)cc1[N+](=O)[O-] | > 100 µM (inactive) | 76.4 µM (inactive) | – | 96.6 µM (inactive) | 41 µM (inactive) | 52.6 µM (inactive) | – | 62.1 µM (inactive) | 75 µM (inactive) | > 100 µM (inactive) | > 100 µM (inactive) | 92.9 µM (inactive) | – |
| C[C@]12CCC(=O)C(O)=C1CC[C@@H]1C2CC[C@]2(C)NC(=O)CCC12 (stereo partly specified) | > 100 µM (inactive) | > 100 µM (inactive) | > 100 µM (inactive) | > 100 µM (inactive) | > 100 µM (inactive) | > 100 µM (inactive) | > 100 µM (inactive) | > 100 µM (inactive) | > 100 µM (inactive) | > 100 µM (inactive) | > 100 µM (inactive) | > 100 µM (inactive) | > 100 µM (inactive) |
| C/C(N)=[N+](/C)[O-] | > 100 µM (inactive) | 17.2 µM (inactive) | > 100 µM (inactive) | > 100 µM (inactive) | > 100 µM (inactive) | > 100 µM (inactive) | > 100 µM (inactive) | 72.6 µM (inactive) | > 100 µM (inactive) | > 100 µM (inactive) | 69.2 µM (inactive) | > 100 µM (inactive) | > 100 µM (inactive) |
| CCNC(=O)O/N=C1\CCC2[C@@H]3CC=C4C[C@@H](OC(=O)NCC)CC[C@]4(C)C3CC[C@]12C (stereo partly specified) | 2.91 µM (inactive) | 0.387 µM (active) | 3.08 µM (inactive) | 1.31 µM (inactive) | 1.05 µM (active) | 0.267 µM (active) | – | 1.57 µM (inactive) | 2.21 µM (inactive) | 2.58 µM (inactive) | 8.95 µM (inactive) | 1.21 µM (inactive) | 22.3 µM (inactive) |
